Experimental data as given in US9399051B2, “Dipeptidyl peptidase-4 inhibitor” (Kaneka Corporation, priority 2009, dated 2016).

System: C57BL/6J SPF male mice
Experiment: Oral glucose tolerance test, blood sugar levels in mice
Format: in vivo
Conditions: mean ± standard error; for Blood sugar level, 0 minutes (pretest value): fasted mice, pretest before administration, in mg/dL (unit assumed); for Blood sugar level, 30 minutes after glucose administration / Blood sugar level, 60 minutes after glucose administration / Blood sugar level, 120 minutes after glucose administration: oral 10 mL/kg (beans 400 mg/mL, sitagliptin 0.1 mg/mL) 30 minutes before oral glucose
Method: The enzyme-treated azuki bean, tora bean and otebo bean prepared in Example 2 and an enzyme-treated defatted soybean prepared using the same method as Example 2 were evaluated for their actual blood sugar lowering effects in the body by using an oral glucose tolerance test. C57BL/6J SPF male mice (Clea Japan, Inc.) were used at age 10 weeks for the study animals. Twenty mice were divided into four groups of 5 mice each. In a single experiment, evaluation was carried out on four groups consisting of a control group (administered distilled water), a positive control group (administered sitagliptin) and two sample groups. Two experiments were carried out and a total of four samples were evaluated.
Blood samples were collected from the caudal veins of the mice that had been fasting since the previous evening, and blood sugar levels were measured using a simple blood glucose measuring device (GLUTEST ACE®, Sanwa Kagaku Kenkyusho Co., Ltd.) to determine pretest values (0 minutes). 100 mg tablets of sitagliptin (MERCK) were ground with a mortar and suspended in water to a concentration of 0.1 mg/mL as sitagliptin for use as a positive control. Each of the enzyme-treated beans prepared in Example 2 (or in accordance with the method thereof) was dissolved with distilled water to a concentration of 400 mg/mL for use as an administration sample. Distilled water (control group), the sitagliptin suspension (positive control group) or the enzyme-treated bean aqueous solution (sample group) was administered orally at 10 mL/kg of body weight. A 40% aqueous glucose solution was administered orally at 5 mL/kg of body weight 30 minutes after administering the distilled water, sitagliptin suspension, or sample. Blood samples were collected from the caudal veins of the mice at, 30, 60 and 120 minutes after the oral administration of glucose, followed by measurement of these blood sugar levels in the same manner as that used for measurement of pretest values.

## N[C@@H](CC(=O)N1CCn2c(nnc2C(F)(F)F)C1)Cc1cc(F)c(F)cc1F [Sitagliptin, sitagliptin]
Experiment 1
  Blood sugar level, 0 minutes (pretest value): 82.4 ± 7.0
  Blood sugar level, 30 minutes after glucose administration: 270.6 ± 24.2
  Blood sugar level, 60 minutes after glucose administration: 185.4 ± 16.2
  Blood sugar level, 120 minutes after glucose administration: 110.2 ± 12.3
Experiment 2
  Blood sugar level, 0 minutes (pretest value): 72.0 ± 4.7
  Blood sugar level, 30 minutes after glucose administration: 215.4 ± 8.5
  Blood sugar level, 60 minutes after glucose administration: 145.0 ± 8.9
  Blood sugar level, 120 minutes after glucose administration: 93.6 ± 8.7
